Results on four molecules are retold here after US20120157478A1, “Hair Care Compositions and Methods to Improve Hair Appearance” (priority 2010, published 2012).

This experiment concerns primary human dermal papilla cells. The experiment in a line: Survival of metabolically stressed primary human dermal papilla cells (ATP, Cell Titer Glo). Type of experiment: cell-based. To be noted: for Survival: 48 hr stress, Vehicle = 1.00; for benefit in increasing the survival of stressed dermal papilla cells (in words): additional testing, individual components versus mixture of the three. From the text:
The dermal papilla, in normal human hair, is the control center for hair diameter and growth. Increasing survival of dermal papilla cells in situ leads to increased hair diameter and to a longer anagen phase which results in longer hair, a higher hair density, and potentially delayed emergence of gray hair. The appearance of this hair results in healthier, younger looking hair. Accordingly, an increase in survival of dermal papilla cells correlates with healthier hair showing an increase in hair diameter, longer hair, higher hair density, and a delayed on-set of gray hair.
Primary human dermal papilla cells were metabolically stressed for 48 hours in reduced standard tissue culture media. During this period of stress the cells were treated with the mixtures below. After 48 hr the metabolic activity of the cells was measured by the amount of ATP using the Cell Titer Glo™ kit (Promega).

`CC(C)(CO)[C@@H](O)C(=O)NCCCO` [Panthenol, panthenol]: the “benefit in increasing the survival of stressed dermal papilla cells (in words)” value (“benefit in increasing the survival” below) is “little benefit”. Where the note is “Panthenol 0.03%, first series”, this molecule had a Survival of 1.02. For the setting “Panthenol 0.3%, second series”, this molecule had a Survival of 0.75.
As to `Cn1c(=O)c2c(ncn2C)n(C)c1=O` [Caffeine, caffeine], the “benefit in increasing the survival” value is “little benefit”. In addition, the Survival (Caffeine 0.02%, first series) was determined as 0.94. In addition, for the setting “Caffeine 0.05%, second series”, the Survival is given as 0.98.
Take `O=c1cc(-c2ccc(O)cc2)oc2cc(O)cc(O)c12` [apigenin, 5,7-Dihydroxy-2-(4-hydroxyphenyl)-4H-1-benzopyran-4-one]: the “increase in the hair follicle cells that survived” value (metabolically stressed 48 hr in reduced standard tissue culture media, ATP by Cell Titer Glo, concentrations not given) is given as 122%.
Turning to `NC(=O)c1cccnc1` [Niacinamide, niacinamide], the “benefit in increasing the survival” value was “little benefit”. Further, the Survival (Niacinamide 0.5 mM, second series) was found to be 1.02. Where the note is “Niacinamide 1.5 mM, first series”, this molecule had a Survival of 0.71.
